Experimental data taken from US10711002B2, “Purine compounds and method for the treatment of cancer” (THE ROYAL INSTITUTION FOR THE ADVANCEMENT OF …, priority 2016, dated 2020).

System: cell mobility
Assay: Live cell locomotion assay
Format: cell-based
Details: moderate doses; 10 ng/mL EGF stimulation
Protocol: Cells were seeded at very low density on multi-well chambered coverglass (LabTek, Rochester, N.Y., USA). After starving, cells were stimulated with 10 ng/mL EGF and plated on a heated humidified stage supplied with 5% CO2. Phase contrast time-lapse images were captured every five minutes for three hours by optimized Nipkow spinning disk confocal microscope (WaveFx spinning disk, Quorum Technologies Inc, Guelph, ON, Canada). Cell motility was measured by tracing the cell periphery manually using Volocity software (Perkin Elmer, Waltham, Mass., USA).
To further confirm Compound 1's anti-metastatic potential, we conducted a live cell locomotion assay to quantify cell movement speed.

SMILES: O=c1c2ccccc2[se]n1-c1nc(NC2CCCCC2)c2nc[nH]c2n1 [Compound 1]
- limitation of the rate of cell mobility: 2-3 fold
